In publication PMC5349767 (ACS chemical neuroscience, 2015):
pIC50: −log10 of the molar value. Where a name gives a salt, the structure may show the parent alone. Read-outs that look alike come from different tables or passages of the source.

Legend:
DAT [1] = target: DAT (Rattus norvegicus, UniProt P23977); test: Inhibition of [3H]dopamine uptake in rat caudate synaptosomes; format: biochemical; conditions: for Fold decrease in DAT potency relative to comparator compound: 8 vs 7, 15 vs 9, 16 vs 7, 17 vs 10; for IC50: read-out: IC50, nM (SD), inhibition at DAT, 5 nM [3H]dopamine uptake, rat caudate synaptosomes, mean ± SD, n = 3
DAT [2] = conditions: read-out: IC50 as DAT reuptake inhibitor; 3,4-dichloro-α-PVP series; cited from earlier work

Chain of DAT (Rattus norvegicus, UniProt P23977) (P23977 whole entry): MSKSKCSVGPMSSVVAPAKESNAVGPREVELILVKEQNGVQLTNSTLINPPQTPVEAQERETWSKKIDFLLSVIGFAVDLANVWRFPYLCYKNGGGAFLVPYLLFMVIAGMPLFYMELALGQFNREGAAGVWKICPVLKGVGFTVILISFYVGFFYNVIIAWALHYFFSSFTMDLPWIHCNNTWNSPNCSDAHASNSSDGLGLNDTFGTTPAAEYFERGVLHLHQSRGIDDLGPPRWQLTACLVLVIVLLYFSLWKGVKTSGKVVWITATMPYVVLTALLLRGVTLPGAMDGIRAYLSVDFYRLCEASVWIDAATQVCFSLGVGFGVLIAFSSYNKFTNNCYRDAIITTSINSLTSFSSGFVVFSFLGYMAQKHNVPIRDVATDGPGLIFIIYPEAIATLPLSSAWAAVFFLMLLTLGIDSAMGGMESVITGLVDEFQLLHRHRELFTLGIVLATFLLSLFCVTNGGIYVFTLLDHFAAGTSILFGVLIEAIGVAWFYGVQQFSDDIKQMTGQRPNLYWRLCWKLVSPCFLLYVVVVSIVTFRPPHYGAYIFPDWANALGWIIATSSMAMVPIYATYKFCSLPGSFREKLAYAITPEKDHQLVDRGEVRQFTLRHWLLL

For `O=C(O)C(=O)O.O=C1c2ccccc2CCC1N1CCCC1` (centres unmarked) [compound 17, 2-(Pyrrolidin-1-yl)-3,4-dihydronaphthalen-1(2H)-one Oxalate], the pIC50 (DAT [1]) was 4.89 and the “Fold decrease in DAT potency relative to comparator compound” value (DAT [1]) was 200 fold.
In the case of `CCCCC(C(=O)c1ccccc1)N1CCCC1` (centres unmarked) [compound 12, 1-Phenyl-2-(pyrrolidin-1-yl)hexanone Oxalate], the IC50 (DAT [1]) was 11.6 nM.
`O=C(c1ccccc1)C(C1CCCC1)N1CCCC1` (centres unmarked) [compound 13, 2-Cyclopentyl-1-phenyl-2-(pyrrolidin-1-yl)ethanone Hydrochloride] gave a pIC50 (DAT [1]) of 7.77.
Compound `CCCC(C(=O)c1ccccc1)N1CCCC1` (stereo not drawn) [compound 7, α-Pyrrolidinovalerophenone, reference compound] has an IC50 (DAT [1]) of 17.5 nM.
For `CCCC(C(=O)c1ccc(Cl)c(Cl)c1)N1CCCC1` (stereo not drawn) [3,4-dichloro-α-PVP], the pIC50 (DAT [2]) is given as 7.37.
In the case of `CCCC(C(=O)c1ccccc1)N1CCCCC1` (centres unmarked) [compound 16, 1-Phenyl-2-(piperidin-1-yl)pentan-1-one Hydrochloride], the pIC50 (DAT [1]) was 6.89.
Compound `O=C(c1ccccc1)C(C1CCCCC1)N1CCCC1` (centres unmarked) [compound 14, 2-Cyclohexyl-1-phenyl-2-(pyrrolidin-1-yl)ethanone Hydrochloride] has a pIC50 (DAT [1]) of 8.08.
`CC(C)C(C(=O)c1ccccc1)N1CCCC1` (centres unmarked) [compound 11] gave an IC50 (DAT [1]) of 92.3 nM.
In the case of `O=C(CN1CCCC1)c1ccccc1.O=C(O)C(=O)O` [compound 8, 2-(1-Pyrolidinyl)-1-acetophenone Oxalate], the “Fold decrease in DAT potency relative to comparator compound” value (DAT [1]) was 185 fold and the IC50 (DAT [1]) was 3250 nM.
